target: human TRPA1 (Homo sapiens (Human), UniProt O75762); assay: FLIPR Tetra calcium influx assay, block of cinnamaldehyde-induced calcium influx in CHO cells expressing TRPA1 (human); format: cell-based; settings: 20 min compound incubation, 75 uM cinnamaldehyde (~EC80), Hill coefficient fixed to 1.5, read-out: hTRPA1 AUC IC50
Description: IC50 Determinations of Exemplified Compounds.
IC50s (effective concentration) of compounds on the human and rat TRPA1 channels were determined using a FLIPR Tetra instrument. CHO cells expressing TRPA1 were plated into 384-well plates, incubated overnight at 37C, and loaded with BD calcium indicator dye for 1 hr at 37° C. followed by 15 minutes. at room temperature. The assay buffer was Hank's Balanced Salt Solution (HBSS) containing 20 mM HEPES (pH readjusted to 7.4) along with 0.02% BSA.
Following dye load and plate cool down, compounds were added to the cells using FLIPR Tetra. Plates were then incubated with compounds for 20 minutes at room temperature prior to adding agonist. Following this incubation, ˜EC80 concentration of cinnamaldehyde (75 uM for human TRPA1 and 45 uM for rat TRPA1) was added to active the channels and block of cinnamaldehyde induced calcium influx was measured.
Fixing the Hill coefficient will generally reduce variability of the IC50 determination. The IC50s were individually examined to make sure the MIN and MAX points were set correctly prior to validation of the results.

Chain of human TRPA1 (O75762 whole entry): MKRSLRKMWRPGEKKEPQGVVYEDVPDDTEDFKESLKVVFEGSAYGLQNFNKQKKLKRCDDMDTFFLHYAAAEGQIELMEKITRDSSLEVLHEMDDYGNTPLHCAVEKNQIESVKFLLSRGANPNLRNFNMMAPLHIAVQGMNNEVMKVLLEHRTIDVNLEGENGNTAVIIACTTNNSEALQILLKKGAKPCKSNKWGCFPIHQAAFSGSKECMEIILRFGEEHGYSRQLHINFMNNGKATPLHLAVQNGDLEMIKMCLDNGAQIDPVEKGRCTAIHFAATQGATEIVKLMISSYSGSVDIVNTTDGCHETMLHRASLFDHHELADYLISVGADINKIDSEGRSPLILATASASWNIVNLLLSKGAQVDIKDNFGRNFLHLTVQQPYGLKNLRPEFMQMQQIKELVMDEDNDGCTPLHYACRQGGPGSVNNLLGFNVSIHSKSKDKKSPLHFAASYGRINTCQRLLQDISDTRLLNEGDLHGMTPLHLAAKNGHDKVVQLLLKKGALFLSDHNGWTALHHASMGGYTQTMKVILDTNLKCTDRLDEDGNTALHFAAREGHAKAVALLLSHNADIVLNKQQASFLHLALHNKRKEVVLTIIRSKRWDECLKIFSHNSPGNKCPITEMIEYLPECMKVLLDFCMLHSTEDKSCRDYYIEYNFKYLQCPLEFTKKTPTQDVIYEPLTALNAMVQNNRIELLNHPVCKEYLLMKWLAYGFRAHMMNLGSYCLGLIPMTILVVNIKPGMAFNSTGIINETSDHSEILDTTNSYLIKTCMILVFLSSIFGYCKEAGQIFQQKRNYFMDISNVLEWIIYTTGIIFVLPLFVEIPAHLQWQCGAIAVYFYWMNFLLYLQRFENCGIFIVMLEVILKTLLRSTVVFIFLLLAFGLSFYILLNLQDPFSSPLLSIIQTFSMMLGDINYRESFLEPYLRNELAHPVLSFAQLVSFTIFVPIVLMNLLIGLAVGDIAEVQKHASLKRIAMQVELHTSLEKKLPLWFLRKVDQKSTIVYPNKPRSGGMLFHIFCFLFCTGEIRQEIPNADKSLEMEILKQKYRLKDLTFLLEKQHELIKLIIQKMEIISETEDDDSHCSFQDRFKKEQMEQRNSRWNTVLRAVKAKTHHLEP

`CNc1nc(CNC(=O)[C@@H]2C[C@@H](F)CN2S(=O)(=O)c2ccc(F)cc2)cc(-c2ccc(C(F)(F)F)cc2)n1` [Example 105, (2S,4R)-4-fluoro-1-[(4-fluorobenzene)sulfonyl]-N-[[2-(methylamino)-6-[4-(trifluoromethyl)phenyl]pyrimidin-4-yl]methyl]pyrrolidine-2-carboxamide] and `Cc1nc(CNC(=O)[C@@H]2C[C@@H](F)CN2S(=O)(=O)c2ccc(F)cc2)cc(-c2ccc(C(F)(F)F)nc2)n1` [Example 152, (2S,4R)-4-fluoro-1-(4-fluorophenylsulfonyl)-N-((2-methyl-6-(6-(trifluoromethyl)pyridin-3-yl)pyrimidin-4-yl)methyl)pyrrolidine-2-carboxamide] are within 1.5-fold of each other in IC50: 128 nM for the first, 163 nM for the second.

`O=C(NCc1ncc(F)c(-c2ccc(C(F)(F)F)nc2)c1F)[C@@H]1C[C@@H](F)CN1S(=O)(=O)c1ccc(F)cc1` [Example 117, (2S,4R)—N-([3,5-difluoro-4-[6-(trifluoromethyl)pyridin-3-yl]pyridin-2-yl]methyl)-4-fluoro-1-[(4-fluorobenzene)sulfonyl]pyrrolidine-2-carboxamide] and `Cc1cnc(CNC(=O)[C@@H]2C[C@@H](F)CN2S(=O)(=O)c2ccc(F)cc2)cc1-c1ccc(C(F)(F)F)nc1` [Example 96, (2S,4R)-4-fluoro-1-(4-fluorophenyl)sulfonyl-N-[[5-methyl-4-[6-(trifluoromethyl)-3-pyridyl]-2-pyridyl]methyl]pyrrolidine-2-carboxamide] are within 1.5-fold of each other in IC50: 224 nM for the first, 162 nM for the second.

`O=C(NCc1cc(C2=CCC(C(F)(F)F)CC2)ncn1)[C@@H]1C[C@@H](F)CN1S(=O)(=O)c1ccc(F)cc1` (stereo partly drawn) [Example 148, (2S,4R)-4-fluoro-1-(4-fluorophenylsulfonyl)-N-((6-(4-(trifluoromethyl)cyclohex-1-enyl)pyrimidin-4-yl)methyl)pyrrolidine-2-carboxamide] and `O=C(NCc1cc(-c2ccc(SC(F)(F)F)cc2)ncn1)[C@@H]1C[C@@H](F)CN1S(=O)(=O)c1ccc(F)cc1` [Example 147, (2S,4R)-4-fluoro-1-(4-fluorophenylsulfonyl)-N-((6-(4-(trifluoromethylthio)phenyl)pyrimidin-4-yl)methyl)pyrrolidine-2-carboxamide] are within 1.5-fold of each other in IC50: 46 nM for the first, 49 nM for the second.

First: O=C(NCc1cc(F)cc(-c2cnc(C(F)F)cn2)c1)[C@@H]1C[C@@H](F)CN1S(=O)(=O)c1ccc(F)cc1 [Example 90, (2S,4R)—N-[[3-[5-(difluoromethyl)pyrazin-2-yl]-5-fluoro-phenyl]methyl]-4-fluoro-1-(4-fluorophenyl)sulfonyl-pyrrolidine-2-carboxamide]
Second: O=C(NCc1cc(F)cc(-c2csc(C(F)(F)F)n2)c1)[C@@H]1C[C@@H](F)CN1S(=O)(=O)c1ccc(F)cc1 [Example 173, (2S,4R)-4-fluoro-1-(4-fluorophenyl)sulfonyl-N-[[3-fluoro-5-[2-(trifluoromethyl)thiazol-4-yl]phenyl]methyl]pyrrolidine-2-carboxamide]
The IC50 of the first is 1.8-fold lower: 62 nM for the first, 111 nM for the second.

`N#Cc1nn(-c2ccc(C(F)(F)F)cc2)cc1CNC(=O)[C@@H]1C[C@@H](F)CN1S(=O)(=O)c1ccc(F)cc1` [Example 50, (2S,4R)—N-([3-cyano-1-[4-(trifluoromethyl)phenyl]-1H-pyrazol-4-yl]methyl)-4-fluoro-1-[(4-fluorobenzene)sulfonyl]pyrrolidine-2-carboxamide] and `O=C(NCc1cn(-c2ccc(C(F)(F)F)cc2)nc1Cl)[C@@H]1C[C@@H](F)CN1S(=O)(=O)c1ccc(F)cc1` [Example 137, (2S,4R)—N-([3-chloro-1-[4-(trifluoromethyl)phenyl]-1H-pyrazol-4-yl]methyl)-4-fluoro-1-[(4-fluorobenzene)sulfonyl]pyrrolidine-2-carboxamide] are within 1.5-fold of each other in IC50: 60 nM for the first, 78 nM for the second.

First: O=C(NCc1ccnc(-c2cnc(C(F)(F)F)cn2)c1)[C@@H]1C[C@@H](F)CN1S(=O)(=O)c1ccc(F)cc1 [Example 67, (2S,4R)-4-fluoro-1-(4-fluorophenyl)sulfonyl-N-[[2-[5-(trifluoromethyl)pyrazin-2-yl]-4-pyridyl]methyl]pyrrolidine-2-carboxamide]
Second: CNc1nc(C(F)(F)F)ccc1-c1cc(CNC(=O)[C@@H]2C[C@@H](F)CN2S(=O)(=O)c2ccc(F)cc2)ccn1 [Example 179, (2S,4R)-4-fluoro-1-(4-fluorophenyl)sulfonyl-N-[[2-[2-(methylamino)-6-(trifluoromethyl)-3-pyridyl]-4-pyridyl]methyl]pyrrolidine-2-carboxamide]
The IC50 of the first is 4.7-fold higher: 290 nM for the first, 62 nM for the second. The second is the more potent here.

Compared with `COCCOc1cc(-c2ccc(C(F)(F)F)nc2)cc(CNC(=O)[C@@H]2C[C@@H](F)CN2S(=O)(=O)c2ccc(F)cc2)n1` [Example 170, (2S,4R)-4-fluoro-1-(4-fluorophenylsulfonyl)-N-((6′-(2-methoxyethoxy)-6-(trifluoromethyl)-3,4′-bipyridin-2′-yl)methyl)pyrrolidine-2-carboxamide], `N#Cc1cc(CNC(=O)[C@@H]2C[C@@H](F)CN2S(=O)(=O)c2ccc(F)cc2)cc(-c2ccc(C(F)(F)F)nc2)c1` [Example 112, (2S,4R)—N-[[3-cyano-5-[6-(trifluoromethyl)-3-pyridyl]phenyl]methyl]-4-fluoro-1-(4-fluorophenyl)sulfonyl-pyrrolidine-2-carboxamide] is 1.9-fold lower in IC50: 89 nM for the first, 48 nM for the second. The second is the more potent here.

Compared with `N#Cc1ccc(-c2cnc(C(F)(F)F)nc2)cc1CNC(=O)[C@@H]1[C@H]2C[C@H]2CN1S(=O)(=O)c1ccc(F)cc1` [Example 176, (1S,2S,5R)—N-(2-cyano-5-(2-(trifluoromethyl)pyrimidin-5-yl)benzyl)-3-((4-fluorophenyl)sulfonyl)-3-azabicyclo[3.1.0]hexane-2-carboxamide], `N#Cc1cnc(CNC(=O)[C@@H]2C[C@@H](F)CN2S(=O)(=O)c2ccc(F)cc2)cc1-c1ccc(C(F)(F)F)nc1` [Example 71, (2S,4R)—N-[[5-cyano-4-[6-(trifluoromethyl)-3-pyridyl]-2-pyridyl]methyl]-4-fluoro-1-(4-fluorophenyl)sulfonyl-pyrrolidine-2-carboxamide] is 22-fold higher in IC50: 8 nM for the first, 176 nM for the second.

First: CC1(C)CC[C@@H](C(=O)NCc2cc(-c3ccc(C(F)(F)F)nc3)ncn2)N1S(=O)(=O)c1ccc(F)cc1 [Example 194, (2S)-1-(4-fluorophenyl)sulfonyl-5,5-dimethyl-N-[[6-[6-(trifluoromethyl)-3-pyridyl]pyrimidin-4-yl]methyl]pyrrolidine-2-carboxamide]
Second: O=C(NCc1cc(-c2ccc(C(F)(F)F)nc2)ncn1)[C@@H]1C[C@H]2C[C@H]2N1S(=O)(=O)c1ccc(F)cc1 [Example 123, (1R,3S,5R)-2-(4-fluorophenyl)sulfonyl-N-[[6-[6-(trifluoromethyl)-3-pyridyl]pyrimidin-4-yl]methyl]-2-azabicyclo[3.1.0]hexane-3-carboxamide]
The IC50 of the first is 2.4-fold higher: 381 nM for the first, 156 nM for the second. The second is the more potent here.

Going from `O=C(NCc1ccnc(-c2ccc(C(F)(F)F)cc2O)c1)[C@@H]1C[C@@H](F)CN1S(=O)(=O)c1ccc(F)cc1` [Example 57, (2S,4R)-4-fluoro-1-(4-fluorophenyl)sulfonyl-N-[[2-[2-hydroxy-4-(trifluoromethyl)phenyl]-4-pyridyl]methyl]pyrrolidine-2-carboxamide] to `O=C(NCc1ccnc(-c2ccc(OC(F)F)cc2)c1)[C@@H]1C[C@@H](F)CN1S(=O)(=O)c1ccc(F)cc1` [Example 160, (2S,4R)—N-[[2-[4-(difluoromethoxy)phenyl]-4-pyridyl]methyl]-4-fluoro-1-(4-fluorophenyl)sulfonyl-pyrrolidine-2-carboxamide], the IC50 rises from 5 nM to 86 nM (17-fold). The first is the more potent here.

Going from `C[C@@]1(C(=O)NCc2cc(-c3ccc(C(F)(F)F)nc3)c(F)cn2)C[C@@H](F)CN1S(=O)(=O)c1ccc(F)cc1` [Example 126, (2S,4R)-4-fluoro-1-(4-fluorophenyl)sulfonyl-N-[[5-fluoro-4-[6-(trifluoromethyl)-3-pyridyl]-2-pyridyl]methyl]-2-methyl-pyrrolidine-2-carboxamide] to `O=C(NCc1cc(-c2ccc(OC(F)(F)F)c(F)c2)ncn1)[C@@H]1C[C@@H](F)CN1S(=O)(=O)c1ccc(F)cc1` [Example 104, (2S,4R)-4-fluoro-N-([6-[3-fluoro-4-(trifluoromethoxy)phenyl]pyrimidin-4-yl]methyl)-1-[(4-fluorobenzene)sulfonyl]pyrrolidine-2-carboxamide], the IC50 rises from 25 nM to 72 nM (2.9-fold). The first is the more potent here.

Going from `O=C(NCc1cn(-c2ccc(C(F)(F)F)nc2)nc1C1CC1)[C@@H]1C[C@@H](F)CN1S(=O)(=O)c1ccc(F)cc1` [Example 151, (2S,4R)—N-([3-cyclopropyl-1-[6-(trifluoromethyl)pyridin-3-yl]-1H-pyrazol-4-yl]methyl)-4-fluoro-1-[(4-fluorobenzene)sulfonyl]pyrrolidine-2-carboxamide] to `COc1nn(-c2cnc(C(F)(F)F)cn2)cc1CNC(=O)[C@@H]1C[C@@H](F)CN1S(=O)(=O)c1ccc(F)cc1` [Example 58, (2S,4R)-4-fluoro-1-(4-fluorophenyl)sulfonyl-N-[[3-methoxy-1-[5-(trifluoromethyl)pyrazin-2-yl]pyrazol-4-yl]methyl]pyrrolidine-2-carboxamide], the IC50 falls from 161 nM to 14 nM (12-fold). The second is the more potent here.

`COc1nn(-c2ccc(C(F)(F)F)cc2)cc1CNC(=O)[C@@H]1C[C@@H](C#N)CN1S(=O)(=O)c1ccc(F)cc1` [Example 110, (2S,4R)-4-cyano-1-[(4-fluorobenzene)sulfonyl]-N-([3-methoxy-1-[4-(trifluoromethyl)phenyl]-1H-pyrazol-4-yl]methyl)pyrrolidine-2-carboxamide] gave an IC50 of 165 nM.
